Numbered stars: 1 amine (or outer) side, 2 acyl side, 3 side chain; on linkers, the order of the positions; unused ones are H or OH. Bridge positions count the residues as written; N and C are the ends. Square brackets hold non-standard residues; d marks the D form. Peptide text beside a SMILES is read from it. * marks the point of attachment. C20 diacid = O=C(O)CCCCCCCCCCCCCCCCCCC(=O)*; γGlu = O=C(O)[C@H](CCC(=O)[*:2])N[*:1]; Hyp = O=C(O)[C@@H]1C[C@@H](O)CN1
Legend:
[1] = biological target: hAM1 receptor (Homo sapiens, UniProt O60895+Q16602); assay: cAMP assay for in vitro receptor activation, hAM1-R; type: cell-based; details: cAMP assay, hAM1 receptor; read-out: hAM1R EC50
Chain of hAM1 receptor (Q16602 23-461): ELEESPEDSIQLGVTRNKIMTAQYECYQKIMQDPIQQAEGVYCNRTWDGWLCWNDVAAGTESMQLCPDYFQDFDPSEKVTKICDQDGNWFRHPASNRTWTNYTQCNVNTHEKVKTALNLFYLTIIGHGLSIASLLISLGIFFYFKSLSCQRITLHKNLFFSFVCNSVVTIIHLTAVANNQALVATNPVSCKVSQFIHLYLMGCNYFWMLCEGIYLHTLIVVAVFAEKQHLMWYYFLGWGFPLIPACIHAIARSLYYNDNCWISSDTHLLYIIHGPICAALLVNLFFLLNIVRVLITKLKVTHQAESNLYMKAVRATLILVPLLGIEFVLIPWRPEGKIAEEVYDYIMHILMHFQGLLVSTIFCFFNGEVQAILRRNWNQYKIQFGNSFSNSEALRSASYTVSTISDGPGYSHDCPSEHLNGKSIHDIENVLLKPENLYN
Chain of hAM1 receptor (O60895 43-175 partner): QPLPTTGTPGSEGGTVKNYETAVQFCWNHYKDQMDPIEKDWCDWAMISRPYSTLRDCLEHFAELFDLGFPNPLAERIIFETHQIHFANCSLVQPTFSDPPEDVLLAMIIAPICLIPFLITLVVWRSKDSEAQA
Procedure, shortened: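 Read-out is intracellular cAMP as a measure of receptor activation. Cells stably overexpressing hAM1 were subcloned to a monoclonal line, then thawed and seeded at 8000 cells/well in DPBS with 0.05% casein and the phosphodiesterase inhibitor IBMX at 0.5 mM.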

[2] = Physical stability of peptide analogues (Thioflavin T fibrillation); type: physicochemical; details: maximum ThT signal normalized between hAMY maximum and buffer background; 40° C., shaking, four days; pH 7 per table title
Procedure, shortened: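 Samples are stressed at 40 °C for four days, being shaken at 700 rpm before each 10-min fluorescence reading of 4 μM Thioflavin T. Buffers were pH 4 acetate or pH 7 phosphate. Reported values are smoothed maximum ThT signals as a percentage of the hAMY-to-background range.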

[3] = biological target: T1, hAMY3 receptor (Homo sapiens, UniProt O60896+P30988); assay: cAMP assay for in vitro receptor activation, hAMY3-R; type: cell-based; details: cAMP assay, hAMY3 receptor; read-out: hAMY3R EC50
T1 sequence (P30988 25-474): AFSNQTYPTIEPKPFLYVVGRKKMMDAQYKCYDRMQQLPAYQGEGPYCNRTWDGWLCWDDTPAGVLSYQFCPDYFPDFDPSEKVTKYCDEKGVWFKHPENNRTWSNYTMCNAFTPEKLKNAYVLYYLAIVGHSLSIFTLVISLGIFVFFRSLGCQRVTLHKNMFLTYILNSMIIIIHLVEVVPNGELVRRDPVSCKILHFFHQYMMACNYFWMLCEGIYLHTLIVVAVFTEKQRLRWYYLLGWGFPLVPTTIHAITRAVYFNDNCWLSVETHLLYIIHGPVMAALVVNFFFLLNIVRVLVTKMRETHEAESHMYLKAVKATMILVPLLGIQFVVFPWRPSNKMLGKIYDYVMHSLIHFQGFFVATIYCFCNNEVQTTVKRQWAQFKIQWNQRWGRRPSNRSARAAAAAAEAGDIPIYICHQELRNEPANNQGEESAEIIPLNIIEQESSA
T1 sequence (O60896 24-148 partner): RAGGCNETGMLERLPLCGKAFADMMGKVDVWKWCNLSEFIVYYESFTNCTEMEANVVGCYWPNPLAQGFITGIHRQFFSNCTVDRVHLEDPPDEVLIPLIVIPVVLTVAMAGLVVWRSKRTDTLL
Procedure, shortened: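 Monoclonal cell line stably overexpressing human AMY3 receptor, 2000 cells/well in DPBS with 0.05% casein and 0.5 mM IBMX. Stimulated 30 min at room temperature with graded compound doses, human amylin as positive control. cAMP accumulation read by TR-FRET after one hour.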

Row | Compound | EC50 [1] [nM] | Max ThT signal (%) [2] [%] | EC50 [3] [nM]
1 | CC[C@H](C)[C@H](NC(=O)[C@H](CCCCN)NC(=O)[C@@H](NC(=O)[C@H](CCCNC(=N)N)NC(=O)[C@@H]1CCCN1C(=O)[C@H](C)NC(=O)[C@@H](NC(=O)[C@H](CC(N)=O)NC(=O)[C@H](CC(=O)O)NC(=O)[C@H](CCCCN)NC(=O)[C@H](CC(=O)O)NC(=O)[C@H](CCCCN)NC(=O)[C@H](CC(=O)O)NC(=O)[C@@H](NC(=O)[C@H](Cc1ccccc1)NC(=O)[C@H](CCC(N)=O)NC(=O)[C@H](Cc1ccc(O)cc1)NC(=O)[C@@H](NC(=O)[C@H](CCC(N)=O)NC(=O)[C@H](Cc1c[nH]cn1)NC(=O)[C@H](C)NC(=O)[C@H](CC(C)C)NC(=O)[C@H](CCCNC(=N)N)NC(=O)[C@H](CCC(N)=O)NC(=O)[C@@H](NC(=O)[C@@H](NC(=O)[C@@H]1CSSC[C@H](NC(=O)CN)C(=O)N[C@@H](CCCNC(=N)N)C(=O)N[C@@H]([C@@H](C)O)C(=O)NCC(=O)N[C@@H]([C@@H](C)O)C(=O)N1)[C@@H](C)O)C(C)C)[C@@H](C)CC)[C@@H](C)O)C(C)C)[C@@H](C)O)C(=O)NCC(=O)N1CCC[C@H]1C(=O)N[C@@H](CC(N)=O)C(=O)NCC(=O)N1C[C@H](O)C[C@H]1C(N)=O [compound 115] (H-GCRTGTCTVQRLAHQIYQFTDKDKDNVAPRTKIGPNG[Hyp]-NH2; disulfide 2-7; N-terminus assumed) | 130 | 2.500 | –
2 | CC[C@H](C)[C@H](NC(=O)[C@H](CCC(N)=O)NC(=O)[C@H](Cc1c[nH]cn1)NC(=O)[C@H](C)NC(=O)[C@H](CC(C)C)NC(=O)[C@H](CCCNC(=N)N)NC(=O)[C@H](CCC(N)=O)NC(=O)[C@@H](NC(=O)[C@@H](NC(=O)[C@@H]1CSSC[C@H](NC(=O)CN)C(=O)N[C@@H](CCCNC(=N)N)C(=O)N[C@@H](Cc2ccccc2)C(=O)NCC(=O)N[C@@H]([C@@H](C)O)C(=O)N1)[C@@H](C)O)C(C)C)C(=O)N[C@@H](Cc1ccc(O)cc1)C(=O)N[C@@H](CCC(N)=O)C(=O)N[C@@H](Cc1ccccc1)C(=O)N[C@H](C(=O)N[C@@H](CC(=O)O)C(=O)N[C@@H](CCCCN)C(=O)N[C@@H](CC(=O)O)C(=O)N[C@@H](CCCCN)C(=O)N[C@@H](CC(=O)O)C(=O)N[C@@H](CC(N)=O)C(=O)N[C@H](C(=O)N[C@@H](C)C(=O)N1CCC[C@H]1C(=O)N[C@@H](CCCNC(=N)N)C(=O)N[C@@H](CO)C(=O)N[C@@H](CCCCN)C(=O)N[C@H](C(=O)N[C@@H](CO)C(=O)N1CCC[C@H]1C(=O)N[C@@H](CCC(N)=O)C(=O)N[C@H](C(=O)N1C[C@H](O)C[C@H]1C(N)=O)[C@@H](C)O)[C@@H](C)CC)C(C)C)[C@@H](C)O [compound 168] (H-GCRFGTCTVQRLAHQIYQFTDKDKDNVAPRSKISPQT[Hyp]-NH2; disulfide 2-7; N-terminus assumed) | > 5000 | 12.500 | –
3 | CC[C@H](C)[C@H](NC(=O)[C@H](CCC(N)=O)NC(=O)[C@H](Cc1c[nH]cn1)NC(=O)[C@H](C)NC(=O)[C@H](CC(C)C)NC(=O)[C@H](CCCNC(=N)N)NC(=O)[C@H](CCC(N)=O)NC(=O)[C@@H](NC(=O)[C@@H](NC(=O)[C@@H]1CSSC[C@H](NC(=O)CN)C(=O)N[C@@H](CCCNC(=N)N)C(=O)N[C@@H](CCSC)C(=O)NCC(=O)N[C@@H]([C@@H](C)O)C(=O)N1)[C@@H](C)O)C(C)C)C(=O)N[C@@H](Cc1ccc(O)cc1)C(=O)N[C@@H](CCC(N)=O)C(=O)N[C@@H](Cc1ccccc1)C(=O)N[C@H](C(=O)N[C@@H](CC(=O)O)C(=O)N[C@@H](CCCCN)C(=O)N[C@@H](Cc1ccccc1)C(=O)N[C@@H](CCCCN)C(=O)N[C@@H](CC(=O)O)C(=O)N[C@@H](CC(N)=O)C(=O)N[C@H](C(=O)N[C@@H](C)C(=O)N1CCC[C@H]1C(=O)N[C@@H](CCCNC(=N)N)C(=O)N[C@@H](CO)C(=O)N[C@@H](CCCCN)C(=O)N[C@H](C(=O)N[C@@H](CO)C(=O)N1CCC[C@H]1C(=O)N[C@@H](CCC(N)=O)C(=O)N[C@H](C(=O)N1C[C@H](O)C[C@H]1C(N)=O)[C@@H](C)O)[C@@H](C)CC)C(C)C)[C@@H](C)O [compound 173] (H-GCRMGTCTVQRLAHQIYQFTDKFKDNVAPRSKISPQT[Hyp]-NH2; disulfide 2-7; N-terminus assumed) | > 5000 | 4.400 | –
4 | CC[C@H](C)[C@H](NC(=O)[C@H](CCC(N)=O)NC(=O)[C@H](Cc1c[nH]cn1)NC(=O)[C@H](C)NC(=O)[C@H](CC(C)C)NC(=O)[C@H](CCCNC(=N)N)NC(=O)[C@H](CCC(N)=O)NC(=O)[C@@H](NC(=O)[C@@H](NC(=O)[C@@H]1CSSC[C@H](NC(=O)CN)C(=O)N[C@@H](CCCNC(=N)N)C(=O)N[C@@H]([C@@H](C)O)C(=O)NCC(=O)N[C@@H]([C@@H](C)O)C(=O)N1)[C@@H](C)O)C(C)C)C(=O)N[C@@H](Cc1c[nH]cn1)C(=O)N[C@@H](CCC(N)=O)C(=O)N[C@@H](Cc1ccccc1)C(=O)N[C@H](C(=O)N[C@@H](CC(=O)O)C(=O)N[C@@H](CCCCN)C(=O)N[C@@H](Cc1ccccc1)C(=O)N[C@@H](CCCCN)C(=O)N[C@@H](CC(=O)O)C(=O)N[C@@H](CC(N)=O)C(=O)N[C@H](C(=O)N[C@@H](C)C(=O)N1CCC[C@H]1C(=O)N[C@@H](CCCNC(=N)N)C(=O)N[C@@H](CO)C(=O)N[C@@H](CCCCN)C(=O)N[C@H](C(=O)N[C@@H](CO)C(=O)N1CCC[C@H]1C(=O)N[C@@H](CCC(N)=O)C(=O)N[C@H](C(=O)N1C[C@H](O)C[C@H]1C(N)=O)[C@@H](C)O)[C@@H](C)CC)C(C)C)[C@@H](C)O [compound 193] (H-GCRTGTCTVQRLAHQIHQFTDKFKDNVAPRSKISPQT[Hyp]-NH2; disulfide 2-7; N-terminus assumed) | > 5000 | 2.700 | –
5 | CC[C@H](C)[C@H](NC(=O)[C@H](CCC(N)=O)NC(=O)[C@H](Cc1c[nH]cn1)NC(=O)[C@H](C)NC(=O)[C@H](CC(C)C)NC(=O)[C@H](CCCNC(=N)N)NC(=O)[C@H](CCC(N)=O)NC(=O)[C@@H](NC(=O)[C@@H](NC(=O)[C@@H]1CSSC[C@H](NC(=O)[C@H](CCCCN)NC(=O)CC[C@H](NC(=O)CCCCCCCCCCCCCCCCCCC(=O)O)C(=O)O)C(=O)N[C@@H](CC(N)=O)C(=O)N[C@@H]([C@@H](C)O)C(=O)N[C@@H](CC(C)C)C(=O)N[C@@H]([C@@H](C)O)C(=O)N1)[C@@H](C)O)C(C)C)C(=O)N[C@@H](Cc1ccc(O)cc1)C(=O)N[C@@H](CCC(N)=O)C(=O)N[C@@H](Cc1ccccc1)C(=O)N[C@H](C(=O)N[C@@H](CC(=O)O)C(=O)N[C@@H](CCCCN)C(=O)N[C@@H](CC(=O)O)C(=O)N[C@@H](CCCCN)C(=O)N[C@@H](CC(=O)O)C(=O)N[C@@H](CC(N)=O)C(=O)N[C@H](C(=O)N[C@@H](C)C(=O)N1CCC[C@H]1C(=O)N1CCC[C@H]1C(=O)N[C@H](C(=O)N[C@@H](CC(N)=O)C(=O)N[C@H](C(=O)NCC(=O)N[C@@H](CO)C(=O)N[C@@H](CC(N)=O)C(=O)NCC(=O)N1C[C@H](O)C[C@H]1C(N)=O)C(C)C)[C@@H](C)O)C(C)C)[C@@H](C)O [compound 225] ({C20 diacid-γGlu}-KCNTLTCTVQRLAHQIYQFTDKDKDNVAPPTNVGSNG[Hyp]-NH2; disulfide 2-7) | > 5000 | – | 0.186
6 | CC[C@H](C)[C@H](NC(=O)[C@H](CCCCN)NC(=O)[C@@H](NC(=O)[C@H](CCCNC(=N)N)NC(=O)[C@@H]1CCCN1C(=O)[C@H](C)NC(=O)[C@@H](NC(=O)[C@H](CC(N)=O)NC(=O)[C@H](CC(=O)O)NC(=O)[C@H](CCCCN)NC(=O)[C@H](CC(=O)O)NC(=O)[C@H](CCCCN)NC(=O)[C@H](CC(=O)O)NC(=O)[C@@H](NC(=O)[C@H](Cc1ccccc1)NC(=O)[C@H](CCC(N)=O)NC(=O)[C@H](Cc1ccc(O)cc1)NC(=O)[C@H](CC(C)C)NC(=O)[C@H](Cc1ccccc1)NC(=O)[C@H](Cc1c[nH]cn1)NC(=O)[C@H](C)NC(=O)[C@H](CC(C)C)NC(=O)[C@H](CCCNC(=N)N)NC(=O)[C@H](CCC(N)=O)NC(=O)[C@@H](NC(=O)[C@@H](NC(=O)[C@@H]1CSSC[C@H](NC(=O)CN)C(=O)N[C@@H](CCCNC(=N)N)C(=O)N[C@@H](Cc2ccccc2)C(=O)NCC(=O)N[C@@H]([C@@H](C)O)C(=O)N1)[C@@H](C)O)C(C)C)[C@@H](C)O)C(C)C)[C@@H](C)O)C(=O)NCC(=O)N[C@@H](CO)C(=O)N[C@@H](CC(N)=O)C(=O)NCC(=O)N[C@@H](Cc1ccc(O)cc1)C(N)=O [compound 376] (H-GCRFGTCTVQRLAHFLYQFTDKDKDNVAPRTKIGSNGY-NH2; disulfide 2-7; N-terminus assumed) | 12 | – | 0.022
